# “Also recorded” adds a separate entry of the source.
# Tests used:
# [1] = tested on: debris-stimulated orthotopic ovarian tumor (ID8); test: Debris-stimulated orthotopic ID8 ovarian tumor model; assay type: in vivo, mice; conditions: PTUPB 30 mg/kg/day
# Protocol: All animal studies were reviewed and approved by the Animal Care and Use Committee of Beth Israel Deaconess Medical Center, Boston, MA Mice were housed at a maximum of 5 animals per cage in a pathogen-free facility with unlimited access to sterile water and chow. Daily welfare evaluations and animal sacrifices were carried out according to the Committee guidelines. For murine injections, chemotherapy-generated murine (ID8) or human (OVCAR5) ovarian tumor cell debris was combined with ID8 or OVCAR5 living cells at equal volumes in PBS. Six-week-old female C57BL/6 (The Jackson Laboratory, Bar Harbor, ME) or SCID mice (Charles River, Cambridge, MA) were injected subcutaneously or intraperitoneally with 100 μL/mouse of ID8 or OVCAR5 cells, respectively. For orthotopic injections, 6-week-old C57BL/6 female mice were injected with 20 μL/mouse of matrigel (Becton Dickinson and Company, Franklin Lakes, NJ) mixed with paclitaxel-generated ID8 debris and/or ID8 living cells at a 1:1 (matrigel:cells) ratio directly into the right ovarian bursa. Systemic treatment with PTUPB (30 mg/kg/day) or control was administered via mini-osmotic pumps (Alzet Inc., Cupertino, CA) implanted into the peritoneum of the mice 4 weeks post-injection. Treatment ended 28 days after implantation of the pumps. […]
# [2] = tested on: B/CMBA.Ov murine ovarian epithelial cells; test: Annexin V/PI cell death analysis of B/CMBA.Ov cells; assay type: cell-based; conditions: 5 μM, 24 hours, vs vehicle
# Protocol: Murine (ID8) or human (OVCAR5) ovarian tumor cells were treated with vehicle or a chemotherapeutic agent (e.g., cisplatin, carboplatin, or paclitaxel) as described. B/CMBA.Ov murine ovarian epithelial cells were treated with vehicle or PTUPB (1 or 5 μM) for 24 hours. The floating population (e.g., dead cells or “debris”) was collected, and the remaining adhered cells were trypsinized and combined with the dead cells. RAW264.7 murine macrophages were treated with vehicle or PTUPB (5 μM) for 24 hours. The floating population was collected and the remaining adhered cells were detached using a cell scraper (Corning Inc., Corning, NY) and combined with the dead cells. Cells were counted via hemocytometer, pelleted, and resuspended in PBS at 1×10^6 cells/mL. Next, 2×10^5 cells were stained with annexin V and propidium iodide (PI) according to FITC Annexin V/Dead Cell Apoptosis Kit protocol (Life Technologies, Carlsbad, CA). Staining was assessed using the BD LSR Fortessa (BD Biosciences, San Jose, CA) at the Dana-Farber Cancer Institute Jimmy Fund Flow Cytometry Core, and analyzed using FlowJo software (Tree Star Inc., Ashland, OR). Experiments were performed three times with similar results.
# [3] = tested on: RAW264.7 murine macrophages; assay type: cell-based; conditions: RFU, percent increase above vehicle-treated macrophages
smiles,measurement,setting,value
"NS(=O)(=O)c1ccc(-n2nc(CCCNC(=O)Nc3ccc(C(F)(F)F)cc3)cc2-c2ccccc2)cc1 [PTUPB, 4-(5-phenyl-3-{3-[3-(4-trifluoromethyl-phenyl)-ureido]propyl}-pyrazol-1-yl) benzenesulfonamide]",debris-stimulated orthotopic ovarian tumor growth,[1],suppressed debris-stimulated orthotopic ovarian tumor growth
same,"survival compared to control, paclitaxel-generated debris orthotopic model","[1]; log-rank test=7.91, p=0.005",significantly prolonged survival
same,induction of cell death of ovarian epithelial cells (B/CMBA.Ov),[2],did not induce cell death
same,"macrophage phagocytosis of aflatoxin B1-generated tumor cell debris, RAW264.7",[3],able to stimulate macrophage phagocytosis; also recorded: stimulates macrophage phagocytosis

# From patent publication US12485107B2, “Methods for the prevention or treatment of cytokine storm” (Beth Israel Deaconess Medical Center, Inc., priority 2019, dated 2025)
